Holding throughout (experiment): cryo-EM structure
Holding throughout (assay type): binding

The target in assay [1] is T1, Lhca1 (Arabidopsis thaliana, UniProt Q01667).
T1 construct: native LHCI antenna subunit within PSI-LHCI supercomplex purified from leaves (beta-DM, sucrose gradient)
T1 sequence (Q01667 36-241): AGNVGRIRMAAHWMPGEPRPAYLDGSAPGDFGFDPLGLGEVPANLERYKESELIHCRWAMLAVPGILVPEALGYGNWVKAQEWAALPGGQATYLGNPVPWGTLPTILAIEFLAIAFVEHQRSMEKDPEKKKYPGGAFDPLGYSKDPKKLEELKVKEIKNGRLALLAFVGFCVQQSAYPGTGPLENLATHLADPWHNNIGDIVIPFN
Particulars: PSI-LHCI supercomplex, 3.13 A; site L2.

Assay [2] has as its target T2, Lhca2 (Arabidopsis thaliana, UniProt Q9SYW8).
T2 construct: native LHCI antenna subunit within PSI-LHCI supercomplex purified from leaves (beta-DM, sucrose gradient)
T2 sequence (Q9SYW8 44-257): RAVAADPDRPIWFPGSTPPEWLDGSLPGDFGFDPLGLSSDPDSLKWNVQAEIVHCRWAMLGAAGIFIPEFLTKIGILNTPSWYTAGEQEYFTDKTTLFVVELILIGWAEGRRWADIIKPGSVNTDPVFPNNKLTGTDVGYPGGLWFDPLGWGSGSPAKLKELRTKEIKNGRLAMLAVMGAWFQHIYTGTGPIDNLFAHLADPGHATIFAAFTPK
Particulars: PSI-LHCI supercomplex, 3.13 A; site L2.

For assay [3], the target named is T3, Lhca1‐Lhca4 (Arabidopsis thaliana, UniProt P27521+Q01667).
T3 construct: heterodimer within native PSI-LHCI supercomplex purified from leaves; ligand at the subunit interface
T3 sequence (Q01667 36-241): T1 sequence (Q01667 36-241)
T3 sequence (P27521 53-251): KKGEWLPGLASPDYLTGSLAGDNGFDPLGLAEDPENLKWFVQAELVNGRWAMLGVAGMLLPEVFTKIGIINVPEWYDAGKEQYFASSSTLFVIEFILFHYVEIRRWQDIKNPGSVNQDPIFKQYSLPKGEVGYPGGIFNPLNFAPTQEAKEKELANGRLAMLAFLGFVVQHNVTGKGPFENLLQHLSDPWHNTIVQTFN
As to conditions: PSI-LHCI supercomplex, 3.13 A; Lhca1/Lhca4 interface near Chl a615, hydrogen bond to Lhca1 Ser210.

With `CC(/C=C/C=C(C)/C=C/[C@@]12O[C@]1(C)C[C@@H](O)CC2(C)C)=C\C=C\C=C(C)\C=C\C=C(C)\C=C\[C@@]12O[C@]1(C)C[C@@H](O)CC2(C)C` [violaxanthin], the cryo-EM structure entry in assay [1] is “Chl a603–Vio L2 coupling were significantly higher for Lhca3 and Lhca4 than for Lhca1”; in assay [2], “significantly higher for Lhca3 and Lhca4 than for Lhca1 and Lhca2”.
For the compound `CC1=C[C@H](O)CC(C)(C)[C@H]1/C=C/C(C)=C/C=C/C(C)=C/C=C/C=C(C)/C=C/C=C(C)/C=C/C1=C(C)C[C@@H](O)CC1(C)C` [lutein], in assay [3], the cryo-EM structure result was “The Lut was situated at the interface between Lhca1 and Lhca4”.
